Test results as given in publication PMC11596857 (Molecules, 2024).
Read-outs that look alike come from different tables or passages of the source.

Legend:
[1] = target: T1, proline utilization A (SmPutA) (Sinorhizobium meliloti, UniProt F7X6I3); assay: X-ray crystal structure ([…] Å); Ki from GSALDH activity inhibition; type: biochemical
T1 construct: gene putA; bifunctional PRODH-GSALDH enzyme, His tag removed
T1 sequence (F7X6I3 1-1233): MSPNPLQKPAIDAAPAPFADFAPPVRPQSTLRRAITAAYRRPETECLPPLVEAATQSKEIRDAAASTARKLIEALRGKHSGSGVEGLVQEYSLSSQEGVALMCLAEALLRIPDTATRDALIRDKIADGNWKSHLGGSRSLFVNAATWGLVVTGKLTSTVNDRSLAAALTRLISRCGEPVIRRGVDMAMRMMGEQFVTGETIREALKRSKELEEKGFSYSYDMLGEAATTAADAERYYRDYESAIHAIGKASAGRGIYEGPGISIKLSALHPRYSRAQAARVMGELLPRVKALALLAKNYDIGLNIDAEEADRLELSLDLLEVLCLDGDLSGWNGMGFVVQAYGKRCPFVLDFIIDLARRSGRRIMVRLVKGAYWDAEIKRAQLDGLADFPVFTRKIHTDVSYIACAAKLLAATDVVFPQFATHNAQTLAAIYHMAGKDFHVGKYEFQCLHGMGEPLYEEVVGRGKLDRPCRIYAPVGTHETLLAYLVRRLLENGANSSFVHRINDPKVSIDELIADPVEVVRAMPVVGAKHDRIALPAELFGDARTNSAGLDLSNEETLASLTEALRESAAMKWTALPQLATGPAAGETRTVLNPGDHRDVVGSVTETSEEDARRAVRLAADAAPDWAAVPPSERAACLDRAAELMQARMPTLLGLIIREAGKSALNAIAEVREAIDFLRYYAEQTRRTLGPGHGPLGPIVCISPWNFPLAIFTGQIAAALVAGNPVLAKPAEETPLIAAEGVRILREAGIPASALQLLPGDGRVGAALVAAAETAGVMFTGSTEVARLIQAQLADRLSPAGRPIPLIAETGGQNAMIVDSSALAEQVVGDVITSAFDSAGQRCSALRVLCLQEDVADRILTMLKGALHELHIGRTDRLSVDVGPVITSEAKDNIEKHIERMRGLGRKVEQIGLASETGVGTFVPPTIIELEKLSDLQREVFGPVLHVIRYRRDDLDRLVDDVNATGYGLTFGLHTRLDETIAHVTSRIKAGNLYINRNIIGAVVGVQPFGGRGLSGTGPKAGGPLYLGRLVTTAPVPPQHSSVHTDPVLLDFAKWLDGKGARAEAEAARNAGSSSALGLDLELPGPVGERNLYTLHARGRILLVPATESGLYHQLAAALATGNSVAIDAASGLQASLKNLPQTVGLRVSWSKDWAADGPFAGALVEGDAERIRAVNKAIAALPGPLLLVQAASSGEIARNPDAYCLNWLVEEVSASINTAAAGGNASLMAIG

[2] = target: T1, proline utilization A (SmPutA); assay: as above; type: biochemical; remark: listed apart in the source

| Ki [2] [µM] | SMILES | Ki [1] [µM] |
| --- | --- | --- |
| – | O=C(O)C1CCCNC1 (racemic) [compound 13, 13] | 1500 |
| 320 | O=C(O)c1cccc2c1OCCO2 [compound 7, 7] | – |
